Measured values as given in patent US5631401A, “Inhibitors of protein farnesyltransferase and squalene synthase” (Abbott Laboratories, priority 1995, dated 1997).

Legend:
[1] = biological target: T1, Rat liver microsomal squalene synthase (Rattus norvegicus, UniProt Q02769); assay: In vitro inhibition of squalene synthase (rat liver microsomes, 3H-farnesyl diphosphate); type: biochemical; settings: 1 μM; compared to controls with no test compound
T1 construct: Rat liver microsomes, the source of enzyme, were prepared; from tissue; host or cells: rat liver microsomes
T1 sequence (Q02769 1-416): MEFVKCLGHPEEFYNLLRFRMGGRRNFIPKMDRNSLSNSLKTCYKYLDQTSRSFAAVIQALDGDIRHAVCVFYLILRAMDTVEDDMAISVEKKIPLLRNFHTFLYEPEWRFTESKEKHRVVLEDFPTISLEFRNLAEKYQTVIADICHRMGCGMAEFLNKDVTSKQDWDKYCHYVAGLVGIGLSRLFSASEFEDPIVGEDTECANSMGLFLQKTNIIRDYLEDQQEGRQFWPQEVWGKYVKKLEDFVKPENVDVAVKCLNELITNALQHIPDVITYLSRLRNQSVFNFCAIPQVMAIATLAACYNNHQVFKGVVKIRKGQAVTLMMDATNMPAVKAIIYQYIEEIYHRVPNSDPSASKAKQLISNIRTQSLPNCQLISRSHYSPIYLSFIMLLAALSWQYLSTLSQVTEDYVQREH
Experimental: In vitro inhibition of squalene synthase may be measured by the following procedure.
Rat liver microsomal squalene synthase activity was measured using radioactive farnesyl diphosphate as a substrate and quantitating squalene synthesis by counting the radioactive squalene formed.
Rat liver microsomes, the source of enzyme, were prepared according to the method of Gillies, P. J., et al., Exp. Molec. Pathol. 44: 329-339 (1986), a modification of the procedure of Erickson, S. K., and Cooper, A. D., Metabolism, 29: 991-996 (1980). Approximately 30 μg of microsomal protein was incubated for 10 minutes at 37° C. with 11 μM of ^3 H-farnesyl diphosphate, 49 mCi/mmol, and test compound in the presence of squalene (2 μL), Mg^++, KF, reduced B-nicotinamide adenine dinucleotide phosphate, dithiothreitol, and K2 PO4, pH 7.35, in a total volume of 200 μL. Oxygen was excluded from the closed incubation tube by degassing with nitrogen. The reaction was terminated by the addition of ethanolic KOH and after degassing with N2, the microsomal membranes were solubilized by heating at 60° C. for 30 minutes. The squalene was extracted into hexane, and the squalene was separated from all other radioactive molecules by passage over an activated alumina column. The solution was collected in scintillation vials, evaporated to dryness, liquid scintillation fluid was added, and the radioactivity was determined in a liquid scintillation counter. […]

[2] = biological target: T2, Rat brain protein farnesyltransferase (Rattus norvegicus, UniProt Q02293+Q04631); assay: In vitro inhibition of protein farnesyltransferase (biotin-lamin substrate, scintillation proximity assay); type: biochemical; settings: for inhibition at 10 µM: compared to uninhibited control; for inhibition at 1 µM: 1 μM (footnote *), read-out: % Inhibition at 1 μM (protein farnesyltransferase, values marked *)
T2 construct: The enzyme was purified according to Reiss, Y., et al., Cell, 62: 81-88 (1990), utilizing steps one through three; from tissue; host or cells: rat brain
How it was run: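 Protein farnesyltransferase isolated from rat brain was purified following steps one through three of the Reiss et al. method, giving a specific activity of about 10 nmol substrate farnesylated/mg enzyme/hour. Activity was measured with a commercial Amersham scintillation proximity assay kit, using biotin-lamin as the acceptor substrate and radioactive farnesyl diphosphate as the donor.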

What does the source list for COc1cccc(CCN(Cc2ccc(Oc3ccccc3)cc2)C(=O)[C@H]2[C@H](C(=O)O)[C@H](C(=O)N(CCc3cccc(OC)c3)Cc3ccc(Oc4ccccc4)cc3)[C@H]2C(=O)O)c1 [Example 76, (1α,2β,3β,4α)-1,3-Di[N-(4-phenoxybenzyl)-N-(3-methoxyphenethyl)aminocarbonyl]cyclobutane-2,4-dicarboxylic acid]?
inhibition at 1 µM [1]: 23%; inhibition at 10 µM [2]: 66%

With COc1ccc(CCN(Cc2ccc(Oc3ccccc3)cc2)C(=O)[C@H]2[C@H](C(=O)O)[C@H](C(=O)N(CCc3ccc(OC)c(OC)c3)Cc3ccc(Oc4ccccc4)cc3)[C@H]2C(=O)O)cc1OC [Example 77, (1α,2β,3β,4α)-1,3-Di [N-(4-phenoxybenzyl)-N-(3,4-dimethoxyphenethyl)aminocarbonyl]cyclobutane-2,4-dicarboxylic acid] as the compound, how does the inhibition at 1 µM [1] read?
The inhibition at 1 µM was 23%.

What about the inhibition at 10 µM [2] of the same compound?
Its inhibition at 10 µM is 48%.

For O=C(O)[C@H]1[C@H](C(=O)N(CCc2ccccc2)Cc2ccc(Oc3ccccc3)cc2)[C@H](C(=O)O)[C@H]1C(=O)N(CCc1ccccc1)Cc1ccc(Oc2ccccc2)cc1 [Example 78, (1α,2β,3β,4α)-1,3-Di [N-(4-phenoxybenzyl)-N-phenethylaminocarbonyl]cyclobutane-2,4-dicarboxylicacid], which inhibition at 1 µM [1] is on record?
Its inhibition at 1 µM is 32%.

And the inhibition at 10 µM [2]?
Its inhibition at 10 µM is 83%.

For O=C(O)[C@H]1[C@H](C(=O)N(CCCc2ccccc2)Cc2ccc(Oc3ccccc3)cc2)[C@H](C(=O)O)[C@H]1C(=O)N(CCCc1ccccc1)Cc1ccc(Oc2ccccc2)cc1 [Example 79, (1α,2β,3β,4α)-1,3-Di [N-(4-phenoxybenzyl)-N-(3-phenyl-1-propyl)aminocarbonyl]cyclobutane-2,4-dicarboxylic acid], which inhibition at 1 µM [1] is on record?
The inhibition at 1 µM was 54%.

What about the inhibition at 10 µM [2] of the same compound?
The inhibition at 10 µM was 43%.

How did the inhibition at 1 µM [1] turn out when O=C(O)[C@H]1[C@H](C(=O)N(CCCCc2ccccc2)Cc2ccc(Oc3ccccc3)cc2)[C@H](C(=O)O)[C@H]1C(=O)N(CCCCc1ccccc1)Cc1ccc(Oc2ccccc2)cc1 [Example 80, (1α,2β,3β,4α)-1,3-Di [N-(4-phenoxybenzyl)-N-(4-phenyl-1-butyl)aminocarbonyl]cyclobutane-2,4-dicarboxylic acid] was run?
The inhibition at 1 µM was 42%.

And the inhibition at 10 µM [2]?
Its inhibition at 10 µM is 51%.

With C[C@@H](c1ccccc1)N(Cc1ccc(Oc2ccccc2)cc1)C(=O)[C@H]1[C@H](C(=O)O)[C@H](C(=O)N(Cc2ccc(Oc3ccccc3)cc2)[C@@H](C)c2ccccc2)[C@H]1C(=O)O [Example 87, (1α,2β,3β,4α)-1,3-Di[N-(S)-α-Methylbenzyl-N-(4-phenoxybenzyl)aminocarbonyl]cyclobutane-2,4-dicarboxylic acid] as the compound, how does the inhibition at 1 µM [1] read?
The inhibition at 1 µM was 76%.

And the inhibition at 10 µM [2]?
The inhibition at 10 µM was 86%.

Which results are given for COc1ccc(CN(Cc2ccc(Oc3ccccc3)cc2)C(=O)[C@H]2[C@H](C(=O)O)[C@H](C(=O)N(Cc3ccc(OC)cc3)Cc3ccc(Oc4ccccc4)cc3)[C@H]2C(=O)O)cc1 [Example 89]?
inhibition at 1 µM [1]: 47%; inhibition at 10 µM [2]: 50%

O=C(O)[C@H]1[C@H](C(=O)N(Cc2ccc(Oc3ccccc3)cc2)CC2CCCCC2)[C@H](C(=O)O)[C@H]1C(=O)N(Cc1ccc(Oc2ccccc2)cc1)CC1CCCCC1 [Example 91] was tested. Which inhibition at 1 µM [1] did it give?
The inhibition at 1 µM was 41%.

And the inhibition at 10 µM [2]?
The inhibition at 10 µM was 36%.

How did the inhibition at 1 µM [1] turn out when O=C(O)[C@H]1[C@H](C(=O)N(Cc2ccc(Oc3ccccc3)cc2)CC2CC2)[C@H](C(=O)O)[C@H]1C(=O)N(Cc1ccc(Oc2ccccc2)cc1)CC1CC1 [Example 93, (1α,2β,3β,4α)-1,3-Di[N-Cyclopropylmethyl-N-(4-phenoxybenzyl)aminocarbonyl]cyclobutane-2,4-dicarboxylic acid] was run?
Its inhibition at 1 µM is 52%.

And the inhibition at 10 µM [2]?
The inhibition at 10 µM was 74%.

For O=C(O)[C@H]1[C@H](C(=O)N(Cc2ccc(F)cc2)Cc2ccc(Oc3ccccc3)cc2)[C@H](C(=O)O)[C@H]1C(=O)N(Cc1ccc(F)cc1)Cc1ccc(Oc2ccccc2)cc1 [Example 94, (1α,2β,3β,4α)-1,3-Di[N-(4-fluorobenzyl)-N-(4-phenoxybenzyl)aminocarbonyl]cyclobutane-2,4-dicarboxylic acid], which inhibition at 1 µM [1] is on record?
Its inhibition at 1 µM is 20%.

What about the inhibition at 10 µM [2] of the same compound?
The inhibition at 10 µM was 99%.

For O=C(O)[C@H]1[C@H](C(=O)N(Cc2ccc(Oc3ccccc3)cc2)C2CCCC2)[C@H](C(=O)O)[C@H]1C(=O)N(Cc1ccc(Oc2ccccc2)cc1)C1CCCC1 [Example 97, (1α,2β,3β,4α)-1,3-Di[N-cyclopentyl-N-(4-phenoxybenzyl)aminocarbonyl]cyclobutane-2,4-dicarboxylic acid], which inhibition at 1 µM [1] is on record?
The inhibition at 1 µM was 49%.

What about the inhibition at 10 µM [2] of the same compound?
Its inhibition at 10 µM is 32%.

With O=C(O)[C@H]1[C@H](C(=O)N(Cc2ccc(Oc3ccccc3)cc2)C2CCCCC2)[C@H](C(=O)O)[C@H]1C(=O)N(Cc1ccc(Oc2ccccc2)cc1)C1CCCCC1 [Example 98, (1α,2β,3β,4α)-1,3-Di[N-cyclohexyl-N-(4-phenoxybenzyl)aminocarbonyl]cyclobutane-2,4-dicarboxylic acid] as the compound, how does the inhibition at 1 µM [1] read?
The inhibition at 1 µM was 55%.

What about the inhibition at 10 µM [2] of the same compound?
The inhibition at 10 µM was 31%.

O=C(O)[C@H]1[C@H](C(=O)N(Cc2ccc(Oc3ccccc3)cc2)C2CCC2)[C@H](C(=O)O)[C@H]1C(=O)N(Cc1ccc(Oc2ccccc2)cc1)C1CCC1 [Example 99, (1α,2β,3β,4α)-1,3-Di[N-cyclobutyl-N-(4-phenoxybenzyl)aminocarbonyl]cyclobutane-2,4-dicarboxylic acid] was tested. Which inhibition at 1 µM [1] did it give?
The inhibition at 1 µM was 20%.

What about the inhibition at 10 µM [2] of the same compound?
Its inhibition at 10 µM is 52%.

What does the source list for O=C(O)[C@H]1[C@H](C(=O)N(Cc2ccc(Oc3ccccc3)cc2)CC2CCC2)[C@H](C(=O)O)[C@H]1C(=O)N(Cc1ccc(Oc2ccccc2)cc1)CC1CCC1 [Example 100, (1α,2β,3β,4α)-1,3-Di[N-cyclobutylmethyl-N-(4-phenoxybenzyl)aminocarbonyl]cyclobutane-2,4-dicarboxylic acid]?
inhibition at 1 µM [1]: 46%; inhibition at 1 µM [2]: 21%

What does the source list for O=C(O)[C@H]1[C@H](C(=O)N(Cc2ccc(Oc3ccccc3)cc2)CC2CCCC2)[C@H](C(=O)O)[C@H]1C(=O)N(Cc1ccc(Oc2ccccc2)cc1)CC1CCCC1 [Example 101, (1α,2β,3β,4α)-1,3-Di[N-cyclopentylmethyl-N-(4-phenoxybenzyl)aminocarbonyl]cyclobutane-2,4-dicarboxylic acid]?
inhibition at 1 µM [1]: 34%; inhibition at 1 µM [2]: 26%

CC[C@@H](C)N(Cc1ccc(Oc2ccccc2)cc1)C(=O)[C@H]1[C@H](C(=O)O)[C@H](C(=O)N(Cc2ccc(Oc3ccccc3)cc2)[C@H](C)CC)[C@H]1C(=O)O [Example 102, (1α,2β,3β,4α)-1,3-Di[N-((2R)-Sec-butyl)-N-(4-phenoxybenzyl)aminocarbonyl]cyclobutane-2,4-dicarboxylic acid] was tested. Which inhibition at 1 µM [1] did it give?
The inhibition at 1 µM was 48%.

And the inhibition at 10 µM [2]?
The inhibition at 10 µM was 37%.
